Reference: patent US20230124492A1, “COMPOSITIONS AND METHODS FOR SUBSTITUTED 7-(PIPERAZIN-1-YL)PYRAZOLO[1,5-A]PYRIMIDINE ANALOGS AS INHIBITORS OF KRAS” (The Board of Regents of the University of Texas System, priority 2019, published 2023)
Entries after “also recorded” stand apart in the source; their conditions may differ.

Legend:
[1] = tested on: cancer cells; assay: Proliferation of cancer cells; assay type: cell-based
[2] = molecular target: KRAS (Homo sapiens, UniProt P01116, G12D); assay: Microscale thermophoresis (MST) binding affinity to KRAS (Table 1); conditions: 100 nM labeled KRAS, read-out: kD (dissociation constant)
Sequence of KRAS (P01116 whole entry G12D): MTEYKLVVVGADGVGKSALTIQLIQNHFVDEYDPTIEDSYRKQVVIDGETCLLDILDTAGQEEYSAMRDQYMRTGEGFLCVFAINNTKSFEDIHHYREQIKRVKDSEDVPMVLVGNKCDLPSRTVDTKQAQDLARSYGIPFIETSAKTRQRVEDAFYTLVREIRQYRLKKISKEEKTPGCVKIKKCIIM
Method: Measurement of compound binding affinity to KKRAS using microscale thermophoresis (MST). MST is based on the movement of molecules in response to temperature gradient. […] KRAS was buffer-exchanged in the labeling buffer (40 mM HEPES, pH 7.5, 5 mM MgCl2, and 500 mM NaCl) using a spin column (provided in the kit) The concentration of the eluted protein was adjusted (10 to 20 μM) and 2-3 fold concentration of the dye (in labeling buffer) was added (200 μL final volume), The solution was incubated for 30 minutes at room temperature in the dark. Labeled KRAS was purified using the column provided in the kit or MST measurements, 16 point serial dilutions of ligands were made in MST Assay Buffer (40 mM HEPES, pH 7.5, 5 mM MgCl2, 100 mM NaCl+0.05% Tween-20+2-4% DMSO) and added to 100 nM KRAS. The solutions were loaded in capillaries and measurements were done using 20% LED power and 40% MST power. The data were fit in Igor Pro using Hill equation or the function in the instrument software.
Microscale thermophoresis (MST) assays were used to measure the affinity of lead compound analogs for KRAS. In a typical experiment, 100 nM KRAS labeled with a dye amine-reactive red NT-647 from NanoTemper) was mixed with different concentrations of ligand and incubated in a binding buffer (40 mM HEPES, pH 7.5, 5 mM MgCl2, 150 mM NaCl, 0.05% polysorbate 20, and 2% DMSO) at room temperature for 10 min before being loaded into a capillary. Thermophoresis is carried out and dissociation constant calculated by monitoring changes in fluorescence intensity. A monolith NT.115 Reader from NanoTemper can be used for MST experiments, with 40% MST and 20% LED power.
Dissociation constants (IQ)) calculated from the thermophoresis results of selected compounds according to the present disclosure are presented in Table 1 below.
Note: For FIGS. 1A-H 1 (as well as one of the curves in FIGS. 2A-I), dissociation constant (Kd) was determined using either Microscale Thermophoresis (MST) or Intrinsic Fluorescence (IF) assay. MST assay uses fluorescence to monitor movement of molecules in response to temperature gradient created by infrared laser.

[3] = molecular target: GDP-KRAS (Homo sapiens, UniProt P01116); assay: Binding of lead compound to GDP-KRAS (inactive KRAS); conditions: GDP-bound
Sequence of GDP-KRAS (P01116 1-188 isoform P01116-2): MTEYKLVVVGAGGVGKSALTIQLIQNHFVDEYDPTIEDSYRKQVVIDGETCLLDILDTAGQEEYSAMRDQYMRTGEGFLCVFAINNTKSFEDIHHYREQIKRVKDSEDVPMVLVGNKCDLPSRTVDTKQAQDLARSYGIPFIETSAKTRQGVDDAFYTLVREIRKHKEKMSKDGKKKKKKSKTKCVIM

[4] = tested on: KRAS-mediated MAPK signaling; assay: KRAS-mediated MAPK signaling; assay type: cell-based
[5] = molecular target: KRAS effector binding (Homo sapiens, UniProt P01116); assay: Effector (Raf) binding to KRAS; assay type: biochemical
Sequence of KRAS effector binding (P01116 1-188 isoform P01116-2): as above

[6] = molecular target: GTP-KRAS (Homo sapiens, UniProt P01116); assay: Binding of lead compound to GTP-KRAS; conditions: active GTP-bound KRAS
Sequence of GTP-KRAS (P01116 1-188 isoform P01116-2): as above

[7] = molecular target: GTP-/GDP-bound NRAS (Homo sapiens, UniProt P01111); assay: Binding of lead compound to GTP-/GDP-bound NRAS
Sequence of GTP-/GDP-bound NRAS (P01111 whole entry): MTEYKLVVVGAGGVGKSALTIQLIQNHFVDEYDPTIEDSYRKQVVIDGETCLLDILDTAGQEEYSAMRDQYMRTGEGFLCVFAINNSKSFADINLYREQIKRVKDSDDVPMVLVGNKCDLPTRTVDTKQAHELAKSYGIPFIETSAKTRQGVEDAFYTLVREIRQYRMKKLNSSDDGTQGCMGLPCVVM

[8] = molecular target: GTP-/GDP-bound HRAS (Homo sapiens, UniProt P01112); assay: Binding of lead compound to GTP-/GDP-bound HRAS
Sequence of GTP-/GDP-bound HRAS (P01112 whole entry): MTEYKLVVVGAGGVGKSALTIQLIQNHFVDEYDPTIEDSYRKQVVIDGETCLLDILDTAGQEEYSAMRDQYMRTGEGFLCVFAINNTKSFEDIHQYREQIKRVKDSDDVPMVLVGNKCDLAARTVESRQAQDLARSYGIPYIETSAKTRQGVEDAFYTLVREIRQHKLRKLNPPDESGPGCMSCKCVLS

Kd [2]: 870 ± 180 nM
Structure (SMILES): Cc1nn2c(N3CCN(CCO)CC3)cc(-c3ccccc3)nc2c1-c1ccccc1 [Compound C1]
Effect on proliferation of cancer cells [1]: inhibit
Affinity for GDP-KRAS (inactive KRAS) [3]: much weaker affinity; also recorded: does not bind
Effect on KRAS-mediated MAPK signaling / signal transduction through KRAS [4]: inhibits; also recorded: reduce
Effect on effector binding [5]: significantly reduces; also recorded: disrupt
Affinity for GTP-KRAS [6]: sub micromolar affinity; also recorded: high affinity
Affinity for GTP-/GDP-bound NRAS [7]: much weaker affinity; also recorded: does not bind
Affinity for GTP-/GDP-bound HRAS [8]: much weaker affinity; also recorded: does not bind
